This passage reports AC50, IC50 and EC50 results from patent US12590062B2, “PD-1/PD-L1 inhibitors” (Gilead Sciences, Inc., priority 2017, dated 2026).

Each structure is given as a SMILES string.

In experiment [1] the target is T1, PD-L1 (Homo sapiens, UniProt Q9NZQ7).
T1 construct: determine if they can specifically dimerize the extracellular domains of PD-L1
As to the kind of experiment: PD-L1/PD-L1 dimerization biochemical protein-protein interaction assay (ALPHA). Type of experiment: binding. As to conditions: compound-induced PD-L1 dimerization, head prints '1 nM' (0.5 nM His-tagged PD-L1 and 0.5 nM FLAG-tagged PD-L1), read-out: AC50 PDL1 Dimer Alpha 1 nM. As for the experimental part:
PD-L1/PD-L1 Dimerization Biochemical Protein-Protein Interaction Assay:
Compounds were tested in biochemical protein-protein interaction assays to determine if they can specifically dimerize the extracellular domains of PD-L1. Dimerization of the proteins (His-tagged PD-L1 and FLAG-tagged PD-L1) is measured using a bead based Amplified Luminescent Proximity Homogeneous Assay (ALPHA) platform. […] Assays are performed in 25 mM Hepes (pH 7.4), 150 mM NaCl, 3.4 mM EDTA, 0.005% Tween 20, and 0.01% BSA. Final protein concentration in the assays were 0.5 nM (His tagged PD-L) and 0.5 nM (FLAG tagged PD-L1). After an assay reaction time of 2 hours at 25° C., 20 μg/mL (final assay concentration) ALPHA assay acceptor beads (anti-His coated) were added and incubated for 60 minutes at 25° C. Binding was measured following a final 60 minute incubation with 40 μg/mL (final assay concentration) ALPHA assay donor beads (anti-FLAG coated). AC50 values were calculated from the fit of the dose-response curves to a four-parameter equation (Table 3).

The target in experiment [2] is PD-1/PD-L1 (Homo sapiens, UniProt Q9NZQ7). The experiment can be described thus: PD-1/PD-L1 biochemical protein-protein interaction assay (ALPHA). Type of experiment: binding. Conditions: 0.3 nM His tagged PD-L1, 2.5 nM biotinylated Fc-PD-1, 60 minutes at 25° C., read-out: IC50 PD-L1-PD-1 Alpha IC50-mono PD-L1-fcP-D1. In a few lines:
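His-PD-L1 ECD 0.3 nM + biotin-Fc-PD-1 2.5 nM (final), 25 mM Hepes pH 7.4, 150 mM NaCl, 3.4 mM EDTA; 60 min, 25° C; anti-His acceptor/streptavidin donor ALPHA beads; decreased signal = blocked binding; 4-parameter IC50.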

The target of experiment [3] is T2, PD-1/PD-L1 interaction (Homo sapiens, UniProt Q9NZQ7).
T2 construct: expressed in transfected cells; host or cells: CHO cells (aAPC-PD-L1) co-cultured with Jurkat cells overexpressing PD-1 and an NFAT-luciferase reporter
As to the kind of experiment: PD-1/PD-L1 NFAT reporter co-culture assay. Conditions: Jurkat PD-1 NFAT-luciferase cells co-cultured with aAPC-PD-L1 CHO cells, 6 hrs at 37° C.; read-out: EC50 NFAT Luciferase. Type of experiment: cell-based. The method, boiled down: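 Jurkat cells overexpressing PD-1 with NFAT-luciferase mixed with compounds and plated onto CHO aAPCs expressing anti-CD3 and PD-L1, RPMI with 2% FBS. Co-culture 6 h at 37 °C; luminescence read with ONE-Glo. EC50 from four-parameter fit.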

T2 sequence (Q9NZQ7 19-290): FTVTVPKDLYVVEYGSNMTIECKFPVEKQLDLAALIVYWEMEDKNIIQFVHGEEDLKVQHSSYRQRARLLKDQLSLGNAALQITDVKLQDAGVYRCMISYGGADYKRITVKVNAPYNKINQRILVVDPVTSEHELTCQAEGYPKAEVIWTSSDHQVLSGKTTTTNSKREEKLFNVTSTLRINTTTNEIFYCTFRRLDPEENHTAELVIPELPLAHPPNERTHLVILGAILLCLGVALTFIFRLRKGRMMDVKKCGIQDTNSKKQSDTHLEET
PD-1/PD-L1, sequence (Q9NZQ7 19-238 limits assumed): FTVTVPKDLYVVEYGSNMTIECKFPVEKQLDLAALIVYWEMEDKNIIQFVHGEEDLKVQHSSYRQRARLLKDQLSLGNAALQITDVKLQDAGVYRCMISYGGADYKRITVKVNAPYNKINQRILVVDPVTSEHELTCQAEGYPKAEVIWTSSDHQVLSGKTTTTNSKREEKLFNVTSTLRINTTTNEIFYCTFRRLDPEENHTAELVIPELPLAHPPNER
T1 sequence (Q9NZQ7 19-238 limits assumed): as above
T1 sequence (Q9NZQ7 19-238 limits assumed): as above

The term AC50 denotes the concentration at which the activity in the assay is half-maximal. Usually IC50 stands for the concentration needed to halve the response being measured. As a reminder, the EC50 is the concentration at which the effect is half-maximal. Take `COc1nc(-c2cccc(-c3cccc4c3CC[C@@H]4Oc3nc(OC)c(CN4CC(C(=O)O)C4)cc3Cl)c2Cl)ccc1CN1CC2(CCC(=O)N2)C1` [Example 713]: the concentration at half-maximal activity (AC50) in experiment [1] turned out to be 69.4 nM. For the same compound, in experiment [2], the IC50 is 0.064 nM. Moreover, in experiment [3], the EC50 is 25 nM.

Turning to `C[C@@](CO)(NCc1ccc(O[C@H]2CCc3c(-c4cccc(-c5ccc(CNC[C@@H]6CCC(=O)N6)cc5)c4Cl)cccc32)nc1OCc1cncc(C#N)c1)C(=O)O` [Example 742], the AC50 in experiment [1] was determined as 42 nM. The IC50 in experiment [2] came out at 0.064 nM. Further, in experiment [3], the EC50 is 32 nM.

Regarding `Cc1c(COc2cc(OCc3cncc(C#N)c3)c(CN[C@@](C)(CO)C(=O)O)cc2Cl)cccc1-c1cccc(-c2ccc(CN3CC[C@H](O)C3)cc2)c1C` [Example 336, (S)-2-((5-chloro-2-((5-cyanopyridin-3-yl)methoxy)-4-((4″-(((S)-3-hydroxypyrrolidin-1-yl)methyl)-2,2′-dimethyl-[1,1′:3′,1″-terphenyl]-3-yl)methoxy)benzyl)amino)-3-hydroxy-2-methylpropanoic acid], in experiment [1], the AC50 is 109 nM. Further, the half-maximal inhibitory concentration (IC50) in experiment [2] is 0.124 nM. Also, in experiment [3], the EC50 is 398 nM.

`COc1nc(-c2cccc(-c3cccc4c3CC[C@@H]4Oc3nc(OC)c(CNC[C@@H]4CCC(=O)N4)cc3Cl)c2Cl)ccc1CNC[C@@H]1CCC(=O)N1` [Example 734]: in experiment [1], the AC50 amounted to 46 nM. Moreover, the half-maximal inhibitory concentration (IC50) in experiment [2] stood at 0.463 nM. Moreover, in experiment [3], the EC50 stood at 36 nM.

With `COc1nc(-c2cccc(-c3cccc(-c4ccc5cc(CN(C)C)[nH]c5c4)c3Cl)c2Cl)ccc1CNC[C@@H]1CCC(=O)N1` [Example 607], the half-maximal activity concentration (AC50) in experiment [1] was 296 nM. The IC50 in experiment [2] was determined as 1.19 nM. Moreover, in experiment [3], the concentration giving a half-maximal response (EC50) worked out at 1730 nM.

In the case of `Cc1c(COc2cc(OCc3cncc(C#N)c3)c(CNC[C@@H](O)CC(=O)O)cc2Cl)cccc1-c1cccc(-c2ccc(OCCNC[C@@H](O)CC(=O)O)cc2)c1Cl` [Example 341, (S)-4-((4-((4″-(2-(((S)-3-carboxy-2-hydroxypropyl)amino)ethoxy)-2′-chloro-2-methyl-[1,1′:3′,1″-terphenyl]-3-yl)methoxy)-5-chloro-2-((5-cyanopyridin-3-yl)methoxy)benzyl)amino)-3-hydroxybutanoic acid], the AC50 in experiment [1] is 38.3 nM. The IC50 in experiment [2] amounted to 0.064 nM. In addition, in experiment [3], the EC50 stood at 284 nM.

As for `COc1cc(-c2cccc(-c3cccc(COc4nc(OCc5cncc(C#N)c5)c(CNC[C@@H]5CCC(=O)N5)cc4Br)c3Cl)c2Cl)ccc1CNC[C@@H]1CCC(=O)N1` [Example 541], in experiment [1], the AC50 is 70.4 nM. Also, the IC50 in experiment [2] was 0.641 nM. In addition, the EC50 in experiment [3] stood at 93 nM.

On to `COc1nc(C(=O)Nc2cccc(-c3cccc(-c4ccc(CNC[C@@H]5CCC(=O)N5)c(OC)n4)c3Cl)c2Cl)ccc1CNC[C@@H]1CCC(=O)N1` [Example 429], for which the AC50 in experiment [1] was determined as 240 nM. For the same compound, the IC50 in experiment [2] worked out at 0.14 nM. The EC50 in experiment [3] turned out to be 680 nM.

On to `N#Cc1cncc(COc2cc(OCc3cccc(-c4cccc(COc5cc(OCc6cncc(C#N)c6)c(CNC[C@@H](O)CC(=O)O)cc5Cl)c4Br)c3Br)c(Cl)cc2CNC[C@@H](O)CC(=O)O)c1` [Example 479], for which the half-maximal activity concentration (AC50) in experiment [1] worked out at 348 nM. Moreover, in experiment [2], the IC50 stood at 0.098 nM. For the same compound, in experiment [3], the EC50 stood at 45 nM.

Regarding `COc1nc(O[C@H]2CCc3c(-c4cccc(-c5cnc(CN[C@@H]6CCC[C@@H]6O)c(OC)n5)c4Cl)cccc32)c(Cl)cc1CNC[C@@H]1CCC(=O)N1` [Example 647], the AC50 in experiment [1] was determined as 211 nM. For the same compound, in experiment [2], the 50% inhibitory concentration (IC50) was determined as 1.89 nM. The EC50 in experiment [3] turned out to be 234 nM.

Take `Cc1c(COc2cc(OCc3cncc(C#N)c3)c(CNC[C@@H](O)CC(=O)O)cc2Cl)cccc1-c1cccc(-c2ccc3c(CNC[C@@H](O)CC(=O)O)ccnc3c2)c1C` [Example 569]: in experiment [1], the half-maximal activity concentration (AC50) came out at 128 nM. Further, the IC50 in experiment [2] came to 0.085 nM. In experiment [3], the concentration giving a half-maximal response (EC50) is 74 nM.
